Calls of active or inactive are those of the source. No rule for the calls is given here.
Biological target: Influenza A virus M2 proton channel (A/TW/4845/1999 H1N1)
Test: M2 proton channel binding, NMR based, influenza A virus H1N1 strain (AID 1549)
Conditions: NMR binding screen, M2 protein

Row | Compound | Kd
1 | CC(=O)Oc1ccc2c(c1OC(C)=O)OCC1(O)Cc3c(cc(OC(C)=O)c(OC(C)=O)c3OC(C)=O)C21 (stereo not drawn) | > 4 mM (inactive)
2 | Cc1nc(SCC(=O)c2c[nH]c3ccccc23)n[nH]1 | > 4 mM (inactive)
3 | Cc1ccc(C(=O)N2CCC(C(N)=O)CC2)cc1C | > 4 mM (inactive)
4 | CC(C)=CCc1c2c(c3occ(-c4ccc(O)c(O)c4)c(=O)c3c1O)C=CC(C)(C)O2 | > 4 mM (inactive)
5 | O=c1[nH]c(O)c(C=NCc2cccs2)c(=O)[nH]1 | > 4 mM (inactive)
6 | N=c1c2c3c(sc2ncn1N)CCCC3 | > 4 mM (inactive)
7 | Cc1nc2nc(Cc3ccccc3)[nH]n2c(=O)c1Cl | > 4 mM (inactive)
8 | O=C1CNC(=O)N1Cc1ccc(F)cc1 | > 4 mM (inactive)
9 | O=C(c1ccccc1)N1CCNCC1 | > 4 mM (inactive)
10 | CC(=O)Nc1ccc(NC(C)=O)c(C(F)(F)F)c1 | > 4 mM (inactive)
11 | C[C@@H]1[C@H]2[C@H](O[C@@H]3O[C@H](CO)[C@@H](O)[C@H](O)[C@H]3O)OC=C(C(=O)O)[C@H]2C[C@@H]1O | > 4 mM (inactive)
12 | OCC1CCCCCN1 (stereo not drawn) | > 4 mM (inactive)
13 | NC1=NC(=O)CC(C(=O)Nc2ccccc2)S1 (stereo not drawn) | > 4 mM (inactive)
14 | O=c1nc(C(F)(F)F)nc2ccccn12 | > 4 mM (inactive)
15 | CC(=O)OCC(=O)[C@@]1(O)CCC2C3CC[C@@H]4C[C@H](O)CC[C@]4(C)C3C(=O)C[C@@]21C (stereo partly drawn) | > 4 mM (inactive)
16 | Nc1ncnc2c1ncn2CCN1CCCCC1 | > 4 mM (inactive)
17 | CC1(O)CC2C=CC1C2 (stereo not drawn) | > 4 mM (inactive)
18 | O=C(Nn1cnnc1)c1ccccc1-c1ccccc1 | > 4 mM (inactive)
19 | O=C1CSC(=Nc2ccccc2)N1 | > 4 mM (inactive)
20 | O=c1[nH]c2sc3c(c2c2ncnn12)CCCC3 | > 4 mM (inactive)
21 | NC(=O)CC1Nc2cccc3cccc(c23)NC1=O (stereo not drawn) | > 4 mM (inactive)
22 | O=c1cc(-c2cc(O)c(O)c(O)c2)oc2cc(O)cc(O)c12 | > 4 mM (inactive)
23 | CC(=O)c1cccc(NS(=O)(=O)N2CCCCC2)c1 | > 4 mM (inactive)
24 | O=C(O)c1cccnc1N1CCCC1 | > 4 mM (inactive)

Row | Compound | Kd
25 | COc1cc(OC)c2c(c1Cl)OC1(C2=O)C(O)=CC(=O)CC1C (stereo not drawn) | > 4 mM (inactive)
26 | O=C1CCCc2c(O)cccc21 | > 4 mM (inactive)
27 | Cc1cc(=O)n(CCc2ccccc2)c(O)c1C#N | > 4 mM (inactive)
28 | O=C1C2C3C=CC(C3)C2C(=O)N1CCO (stereo not drawn) | > 4 mM (inactive)
29 | Cc1ccc(=O)[nH]c1 | > 4 mM (inactive)
30 | Cc1c(C(=O)O)cnn1-c1ccccc1 | > 4 mM (inactive)
31 | COC(=O)Cc1cc(=O)n(-c2ccccc2)[nH]1 | > 4 mM (inactive)
32 | COc1cccc(NC(=O)c2ncn[nH]2)c1 | > 4 mM (inactive)
33 | CP(C)(=O)CCC(=O)O | > 4 mM (inactive)
34 | NC(=O)/C=C/C(=O)Nc1ccccc1 | > 4 mM (inactive)
35 | CCCCC(Nc1n[nH]c(=O)[nH]c1=O)C(=O)O (stereo not drawn) | > 4 mM (inactive)
36 | CS(=O)(=O)N1CCN(c2ncccn2)CC1 | > 4 mM (inactive)
37 | Nc1ccc(-n2cncn2)cc1 | > 4 mM (inactive)
38 | Cc1ccc(-c2c(C)n([O-])c(C)c(C)[n+]2=O)cc1 | > 4 mM (inactive)
39 | O=C(O)c1ccc2[nH]c3c(c2c1)CSCC3 | > 4 mM (inactive)
40 | COc1cccc(/C=N/N=C2/NC(=O)CS2)c1 | > 4 mM (inactive)
41 | Cc1ccc(CN2CCN(C(=O)C3CCC3)CC2)cc1 | > 4 mM (inactive)
42 | O=C(Nc1ccc(O)cc1)N1CCOCC1 | > 4 mM (inactive)
43 | O=C(/C=C1\SC(=O)NC1=O)NCc1ccccc1 | > 4 mM (inactive)
44 | O=C(O)C1CC(=O)N(Cc2cccs2)C1 (stereo not drawn) | > 4 mM (inactive)
45 | COc1ccc(-c2coc3cc(OC)cc(OC)c3c2=O)cc1 | > 4 mM (inactive)
46 | CNCc1ccccc1 | > 4 mM (inactive)
47 | Oc1ccc(/C=C/c2cc(O)cc(O)c2)cc1 | > 4 mM (inactive)
48 | O=C(c1ccncc1)N1CCN(C(=O)c2ccco2)CC1 | > 4 mM (inactive)
